The term Ki denotes a measure of affinity in units of concentration, obtained from inhibition or displacement.

This passage reports Ki results from patent US10023559B2 (Hoffmann-La Roche Inc., priority 2014, dated 2018).

Test [1] has as its target rat TAAR1 (Rattus norvegicus (Rat), UniProt Q923Y9). The test can be described thus: Radioligand binding assay on rat TAAR1. To be noted: read-out: Ki(μM) rat; rat TAAR1, HEK-293 membranes, second value of cell pair mouse/rat.
Experimental: (§1) Membrane Preparation and Radioligand Binding.
HEK-293 cells stably expressing rat TAAR1 were maintained at 37° C. and 5% CO2 in DMEM high glucose medium, containing fetal calf serum (10%, heat inactivated for 30 min at 56° C.), penicillin/streptomycin (1%), and 375 μg/ml geneticin (Gibco). Cells were released from culture flasks using trypsin/EDTA, harvested, washed twice with ice-cold PBS (without Ca^2+ and Mg^2+), pelleted at 1,000 rpm for 5 min at 4° C., frozen and stored at −80° C. Frozen pellets were suspended in 20 ml HEPES-NaOH (20 mM, pH 7.4) containing 10 mM EDTA and homogenized with a Polytron (PT 6000, Kinematica) at 14,000 rpm for 20 s. The homogenate was centrifuged at 48,000×g for 30 min at 4° C. Subsequently, the supernatant was removed and discarded, and the pellet resuspended in 20 ml HEPES-NaOH (20 mM, pH 7.4) containing 0.1 mM EDTA using the Polytron (20 s at 14,000 rpm). This procedure was repeated and the final pellet resuspended in HEPES-NaOH containing 0.1 mM EDTA and homogenized using the Polytron. Typically, aliquots of 2 ml membrane portions were stored at −80° C. With each new membrane batch the dissociation constant (Kd) was determined via a saturation curve. […] Nonspecific binding was defined as the amount of [H]—(S)-4-[(ethyl-phenyl-amino)-methyl]-4,5-dihydro-oxazol-2-ylamine bound in the presence of 10 M unlabeled ligand. All compounds were tested at a broad range of concentrations (10 pM to 10 μM) in duplicates. […] The 96 deep well plates were incubated for 1 hr at 4° C. Incubations were terminated by rapid filtration through Unifilter-96 plates (Packard Instrument Company) and glass filters GF/C (Perkin Elmer) presoaked for 1 hr in polyethylenimine (0.3%) and washed 3 times with 1 ml of cold binding buffer. After addition of 45 μl of Microscint 40 (PerkinElmer) the Unifilter-96 plate was sealed and after 1 hr the radioactivity counted using a TopCount Microplate Scintillation Counter (Packard Instrument Company).
For test [2], the target named is mouse TAAR1 (Mus musculus (Mouse), UniProt Q923Y8). The test can be described thus: Radioligand binding assay on mouse TAAR1.
mouse TAAR1, sequence (Q923Y8 whole entry): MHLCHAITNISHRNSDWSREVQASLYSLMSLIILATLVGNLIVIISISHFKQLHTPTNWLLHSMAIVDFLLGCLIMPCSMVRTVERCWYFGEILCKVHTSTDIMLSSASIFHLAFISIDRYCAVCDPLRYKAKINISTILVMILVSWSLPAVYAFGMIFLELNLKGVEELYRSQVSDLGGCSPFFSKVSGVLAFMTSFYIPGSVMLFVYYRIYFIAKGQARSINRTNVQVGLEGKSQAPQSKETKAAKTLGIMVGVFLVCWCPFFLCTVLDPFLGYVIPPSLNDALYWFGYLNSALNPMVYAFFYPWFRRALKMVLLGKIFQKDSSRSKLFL
Experimental: as §1
HEK-293 cells stably expressing mouse TAAR1 were maintained at 37° C. and 5% CO2 in DMEM high glucose medium, containing fetal calf serum (10%, heat inactivated for 30 min at 56° C.), penicillin/streptomycin (1%), and 375 μg/ml geneticin (Gibco). Cells were released from culture flasks using trypsin/EDTA, harvested, washed twice with ice-cold PBS (without Ca^2+ and Mg^2+), pelleted at 1,000 rpm for 5 min at 4° C., frozen and stored at −80° C. Frozen pellets were suspended in 20 ml HEPES-NaOH (20 mM, pH 7.4) containing 10 mM EDTA and homogenized with a Polytron (PT 6000, Kinematica) at 14,000 rpm for 20 s. The homogenate was centrifuged at 48,000×g for 30 min at 4° C. Subsequently, the supernatant was removed and discarded, and the pellet resuspended in 20 ml HEPES-NaOH (20 mM, pH 7.4) containing 0.1 mM EDTA using the Polytron (20 s at 14,000 rpm). This procedure was repeated and the final pellet resuspended in HEPES-NaOH containing 0.1 mM EDTA and homogenized using the Polytron. Typically, aliquots of 2 ml membrane portions were stored at −80° C. With each new membrane batch the dissociation constant (Kd) was determined via a saturation curve. […] Nonspecific binding was defined as the amount of ^3[H]—(S)-4-[(ethyl-phenyl-amino)-methyl]-4,5-dihydro-oxazol-2-ylamine bound in the presence of 10 M unlabeled ligand. All compounds were tested at a broad range of concentrations (10 pM to 10 μM) in duplicates. […] The 96 deep well plates were incubated for 1 hr at 4° C. Incubations were terminated by rapid filtration through Unifilter-96 plates (Packard Instrument Company) and glass filters GF/C (Perkin Elmer) presoaked for 1 hr in polyethylenimine (0.3%) and washed 3 times with 1 ml of cold binding buffer. After addition of 45 μl of Microscint 40 (PerkinElmer) the Unifilter-96 plate was sealed and after 1 hr the radioactivity counted using a TopCount Microplate Scintillation Counter (Packard Instrument Company).

rat TAAR1, sequence (Q923Y9 whole entry): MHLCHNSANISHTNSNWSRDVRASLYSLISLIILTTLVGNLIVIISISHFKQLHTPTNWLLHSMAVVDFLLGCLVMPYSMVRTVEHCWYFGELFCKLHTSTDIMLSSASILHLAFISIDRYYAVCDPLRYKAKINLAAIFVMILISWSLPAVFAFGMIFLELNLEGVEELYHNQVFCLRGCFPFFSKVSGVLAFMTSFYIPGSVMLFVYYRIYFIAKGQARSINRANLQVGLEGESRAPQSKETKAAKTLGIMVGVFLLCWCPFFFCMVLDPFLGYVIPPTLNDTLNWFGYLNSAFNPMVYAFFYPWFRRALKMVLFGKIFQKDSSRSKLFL

For the compound `O=C(Nc1ccc(C[C@H]2CCN2)cc1)c1cnc(C(F)(F)F)nc1` [Example 80, N-[4-[[(2S)-azetidin-2-yl]methyl]phenyl]-2-(trifluoromethyl)pyrimidine-5-carboxamide], the Ki amounted to 0.026 µM in test [1] and 27.2 nM in test [2].

Turning to `O=C(Nc1ccc(OC2CNC2)cc1)c1[nH]nc(C2CC2)c1F` [Example 42, N-[4-(azetidin-3-yloxy)phenyl]-3-cyclopropyl-4-fluoro-1H-pyrazole-5-carboxamide], the Ki amounted to 0.113 µM in test [1] and 15 nM in test [2].

For `O=C(Nc1ccc(C[C@H]2CCN2)cc1)c1ccc(Cl)nc1` [Example 81, N-[4-[[(2S)-azetidin-2-yl]methyl]phenyl]-6-chloro-pyridine-3-carboxamide], the Ki in test [1] amounted to 0.0202 µM; in test [2] it was 4.1 nM.

`O=C(Nc1ccc(OC2CNC2)c(F)c1)c1cnc(C(F)(F)F)nc1` [Example 26, N-[4-(azetidin-3-yloxy)-3-fluoro-phenyl]-2-(trifluoromethyl)pyrimidine-5-carboxamide]: the Ki came out at 0.0238 µM in test [1] and 16.1 nM in test [2].

In the case of `Cn1nc(C(=O)Nc2ccc(OC3CNC3)cc2)c(Cl)c1C(F)(F)F` [Example 43, N-[4-(azetidin-3-yloxy)phenyl]-4-chloro-1-methyl-5-(trifluoromethyl)pyrazole-3-carboxamide], the inhibition constant Ki in test [1] came out at 0.0435 µM; in test [2], 6.8 nM.

On to `O=C(Nc1ccc(OC2CNC2)cc1)Nc1cccc(Cl)c1` [Example 109, 1-[4-(azetidin-3-yloxy)phenyl]-3-(3-chlorophenyl)urea], for which the Ki in test [1] turned out to be 0.003 µM; in test [2], 4.6 nM.

As for `O=C(Nc1ccc(OC2CNC2)cc1F)c1[nH]nc(C2CC2)c1Cl` [Example 36, N-[4-(azetidin-3-yloxy)-2-fluoro-phenyl]-4-chloro-3-cyclopropyl-1H-pyrazole-5-carboxamide], the Ki in test [1] was found to be 0.029 µM; in test [2], 13.9 nM.

As to `O=C(Nc1ccc(C[C@@H]2NC[C@@H]2F)cc1)c1cnc(C2CC2)nc1` [Example 129, 2-cyclopropyl-N-(4-(((2S,3S)-3-fluoroazetidin-2-yl)methyl)phenyl)pyrimidine-5-carboxamide], the Ki stood at 0.055 µM in test [1] and 8.9 nM in test [2].

Consider `CC(C)(C)c1n[nH]c(C(=O)Nc2ccc(OC3CNC3)cc2)c1Cl` [Example 32, N-[4-(azetidin-3-yloxy)phenyl]-3-tert-butyl-4-chloro-1H-pyrazole-5-carboxamide], for which the values for the Ki in test [1] and in test [2] were 0.0145 µM and 13.4 nM, respectively.

On to `O=C(Nc1ccc(C(F)(F)C2CNC2)cc1)c1ccc(Cl)cc1` [Example 51, N-[4-[azetidin-3-yl(difluoro)methyl]phenyl]-4-chloro-benzamide], for which the figures for the inhibitory constant (Ki) in test [1] and in test [2] were 0.0515 µM and 1.1 nM, respectively.

Take `FC1(Cc2ccccc2)CNC1` [Example 46, 3-benzyl-3-fluoro-azetidine]: the Ki in test [1] came out at 0.552 µM; in test [2] it was 1990 nM.

In the case of `O=C(Nc1ccc(CC2(F)CNC2)cc1)c1ccc(Cl)cc1` [Example 52, 4-chloro-N-[4-[(3-fluoroazetidin-3-yl)methyl]phenyl]benzamide], the results for the Ki in test [1] and in test [2] were 0.0035 µM and 0.9 nM, respectively.

Consider `O=C(Nc1ccc(C[C@H]2NC[C@H]2F)cc1)c1cnc(C(F)(F)F)nc1` [Example 123, N-(4-(((2R,3R)-3-fluoroazetidin-2-yl)methyl)phenyl)-2-(trifluoromethyl)pyrimidine-5-carboxamide], for which the Ki amounted to 0.61 µM in test [1] and 23.2 nM in test [2].

On to `O=C(Nc1ccc(C=C2CNC2)cc1)Nc1cccc(Cl)c1` [Example 118, 1-[4-(azetidin-3-ylidenemethyl)phenyl]-3-(3-chlorophenyl)urea], for which the Ki came out at 0.0021 µM in test [1] and 3.8 nM in test [2].

For the compound `Cc1cc(C(=O)Nc2ccc(C=C3CNC3)c(F)c2)nc(C(F)(F)F)n1` [Example 85, N-(4-(azetidin-3-ylidenemethyl)-3-fluorophenyl)-6-methyl-2-(trifluoromethyl)pyrimidine-4-carboxamide], the Ki is 0.0134 µM in test [1] and 50.9 nM in test [2].

Regarding `O=C(Nc1ccc(CC2(F)CNC2)cc1)c1cnc(OCC(F)(F)F)cn1` [Example 57, N-[4-[(3-fluoroazetidin-3-yl)methyl]phenyl]-5-(2,2,2-trifluoroethoxy)pyrazine-2-carboxamide], the results for the inhibitory constant (Ki) in test [1] and in test [2] were 0.0369 µM and 14.7 nM, respectively.

Turning to `O=C(Nc1ccc(OC2CNC2)cc1)c1cnc(OCC(F)(F)F)cn1` [Example 77, N-[4-(azetidin-3-yloxy)phenyl]-5-(2,2,2-trifluoroethoxy)pyrazine-2-carboxamide], the values for the Ki in test [1] and in test [2] were 0.0187 µM and 4 nM, respectively.

For the compound `O=C(Nc1ccc(C[C@@H]2NC[C@@H]2F)cc1)c1ccnc(C(F)(F)F)c1` [Example 104, N-(4-(((2S,3S)-3-fluoroazetidin-2-yl)methyl)phenyl)-2-(trifluoromethyl)isonicotinamide], the Ki in test [1] was found to be 0.0231 µM; in test [2] it was 10.8 nM.

For the compound `c1ccc(C[C@H]2CCN2)cc1` [Example 89, (S)-2-benzylazetidine], the Ki in test [1] was 0.0822 µM; in test [2], 1520 nM.

Consider `O=C(Nc1ccc(C=C2CNC2)cc1)Nc1ccc(C(F)(F)F)cc1` [Example 116, 1-[4-(azetidin-3-ylidenemethyl)phenyl]-3-[4-(trifluoromethyl)phenyl]urea], for which the inhibition constant (Ki) in test [1] came to 0.0016 µM; in test [2] it was 3.7 nM.

For `CC(C)c1cc(C(=O)Nc2ccc(C[C@@H]3NC[C@@H]3F)cc2)n(C)n1` [Example 131, N-(4-(((2S,3S)-3-fluoroazetidin-2-yl)methyl)phenyl)-3-isopropyl-1-methyl-1H-pyrazole-5-carboxamide], the Ki is 0.126 µM in test [1] and 119 nM in test [2].

Take `COC1(Cc2ccc(NC(=O)c3ccc(Cl)nc3)cc2)CNC1` [Example 73, 6-chloro-N-[4-[(3-methoxyazetidin-3-yl)methyl]phenyl]pyridine-3-carboxamide]: the figures for the Ki in test [1] and in test [2] were 0.0543 µM and 13.6 nM, respectively.

With `O=C(Nc1ccc(C[C@H]2NC[C@H]2F)cc1)c1ccnc(C(F)(F)F)c1` [Example 121, N-(4-(((2R,3R)-3-fluoroazetidin-2-yl)methyl)phenyl)-2-(trifluoromethyl)isonicotinamide], the inhibition constant (Ki) in test [1] worked out at 0.809 µM; in test [2] it was 7 nM.

With `CCc1ncc(C(=O)Nc2ccc(OC3CNC3)cc2)cn1` [Example 15, N-[4-(azetidin-3-yloxy)phenyl]-2-ethyl-pyrimidine-5-carboxamide], the Ki in test [1] was 0.261 µM; in test [2] it was 57.1 nM.

Take `O=C(Nc1ccc(OC2CNC2)cc1)c1nn(CC(F)(F)F)cc1Cl` [Example 21, N-[4-(azetidin-3-yloxy)phenyl]-4-chloro-1-(2,2,2-trifluoroethyl)pyrazole-3-carboxamide]: the Ki was 0.0207 µM in test [1] and 653 nM in test [2].

On to `O=C(Nc1ccc(C=C2CNC2)cc1)c1ccc(Cl)cc1` [Example 61, N-[4-(azetidin-3-ylidenemethyl)phenyl]-4-chloro-benzamide], for which the Ki came to 0.246 µM in test [1] and 121 nM in test [2].

For `O=C(Nc1ccc(OC2CNC2)cc1F)c1cnc(C2CC2)nc1` [Example 38, N-[4-(azetidin-3-yloxy)-2-fluoro-phenyl]-2-cyclopropyl-pyrimidine-5-carboxamide], the Ki amounted to 0.853 µM in test [1] and 35.1 nM in test [2].
